# Read-outs that look alike come from different tables or passages of the source.
# Legend:
# B16 murine melanoma [1] = experiment: Autoradiograms, C57 BL6 mice bearing B16; format: in vivo, mouse
# Protocol: (§1) The autoradiograms are carried out in mice bearing grafted melanomas:
# a. C57 BL6 bearing the B16 murine melanoma.
# (§2) The animals bearing grafted tumors receive the labelled compounds in the form of the hydrochloride in saline solution (3.7 to 5×10^5 Bq/animal) in a caudal vein. At different time intervals after the administration of the compounds (from 15 minutes to 24 hours) the mice are anesthetized with ether and plunged into liquid nitrogen.
# (§3) 30 μm sections, parallel to a sagittal plane, are prepared in a freezing microtome (TS 260, SLEE) according to the protocol described by Ullberg.
# [2] = system: 6 weeks old OF 1 male mice; experiment: LD50 determination, i.v. (Karber and Behrens); conditions: mouse, in vivo, iv
# Excerpt: (§4) The determination of the LD50 is made in the mouse after i.v. injection of the molecules according to the methodology described by Karber and Behrens.
# (§5) 6 weeks old OF 1 male mice
# [3] = LD50 determination, i.v. (Karber and Behrens); conditions: mouse, in vivo, iv
# Excerpt: as §4, §5
# B16 melanoma = experiment: Scintillation imaging, C57 BL6 mice bearing B16; format: in vivo, mouse; conditions: 3 to 17 h after injection
# Excerpt: (§6) The mice bearing grafted tumors are anesthetized by the i.p. injection of sodium pentobarbital 1/5 and immobilized under a scintillation camera (Gammatome II, CGR) equipped with a pinhole 3-360 collimator, sensitivity 3.2 10^-4.
# C57 BL6 bearing B16 melanomas at different stages of development.
# (§7) The scanning observations have also been carried out after the injection of B into the following mice:
# C57 BL6 bearing the B16 melanoma
# B16 murine melanoma [4] = experiment: Tissue distribution in C57 BL6 mice bearing B16; format: in vivo, mouse
# Protocol: (§8) The study of the tissue distribution of the ^125 I labelled compounds was performed in mice bearing grafted melanomas (cf. autoradiograms above). […] The animals are sacrificed at different time intervals of 1 to 24 hours after the injection. The blood is collected and the principal organs are excised. Aliquots are weighed and the radioactivity of the samples is measured in a […] 1191 counter (analytic tracer). The counting yield for iodine 125 is 60%. The results are expressed: as a percentage of the injected dose bound per g of tissue (% ID/g); in the form of the ratios [formula] This ratio reflects more precisely the selectivity of a molecule for an organ (tables 2, 4, 6, 8, 10 and 12).
# [5] = Tissue distribution in C57 BL6 mice bearing B16; format: in vivo, mouse; conditions: mouse, iv, 3 umol/animal
# Protocol: as §8
# [6] = system: Beu melanic human melanoma; experiment: Autoradiograms, nu/nu SSCUP nude mice bearing Beu; format: in vivo
# Protocol: as §1
# b. nu/nu SSCUP nudes bearing heterotransplants of melanic (Beu) or amelanic (Dau) human melanomas).
# as §2, §3
# [7] = system: Beu melanic human melanoma; experiment: Scintillation imaging, nu/nu SSCUP nude mice bearing Beu; format: in vivo; conditions: 3 to 17 h after injection
# Excerpt: as §6
# nu/nu SSCUP nudes bearing human melanomas Beu and Dau.
# as §7
# nu/nu SSCUP nudes bearing the Beu heterotransplant.
# [8] = kidney, read-out: kidney % ID/g
# [9] = muscle, read-out: muscle % ID/g
# [10] = plasma, read-out: plasma % ID/g
structure (smiles),measurement,setting,value
"CCNCCNC(=O)c1ccc(I)cc1 [Derivative B, N-(2-ethylaminoethyl) 4-iodo benzamide]",darkening of the film at the tumor,B16 murine melanoma [1]; 1 h after injection,qualitatively as great as after the injection of A
same,tumoral radioactive concentration (autoradiogram),"B16 murine melanoma [1]; 4 h and particularly 6 h, compared with A",more intense tumoral radioactive concentration
same,tumor visibility on autoradiogram,B16 murine melanoma [1]; 24 h after i.v.,still visible
same,radioactivity remaining in the organism,B16 murine melanoma [1]; 24 h after injection,no radioactivity remains in the organism
same,LD 0,[2],150 mg/kg
same,LD 100,[2],200 mg/kg
same,LD50,[3],175 mg/kg
same,tumoral definition,B16 melanoma,very good tumoral definition
same,intratumoral concentrations and ratios compared with A,"B16 murine melanoma [4]; 4 to 8 h, melanic melanomas, preliminary",markedly higher than those observed with A
same,brain/blood ratio,B16 murine melanoma [4]; 1 h,"2,48"
same,eye/blood ratio,B16 murine melanoma [4]; 1 h,"9,70"
same,kidney/blood ratio,B16 murine melanoma [4]; 1 h,"10,92"
same,liver/blood ratio,B16 murine melanoma [4]; 1 h,"5,32"
same,lungs/blood ratio,B16 murine melanoma [4]; 1 h,"11,00"
same,muscle/blood ratio,B16 murine melanoma [4]; 1 h,"1,95"
same,plasma/blood ratio,B16 murine melanoma [4]; 1 h,"0,56"
same,tumor/blood ratio,B16 murine melanoma [4]; 1 h,"4,70"
same,brain/blood ratio,B16 murine melanoma [4]; 2 h,"3,11"
same,eye/blood ratio,B16 murine melanoma [4]; 2 h,"17,50"
same,kidney/blood ratio,B16 murine melanoma [4]; 2 h,"12,82"
same,liver/blood ratio,B16 murine melanoma [4]; 2 h,"5,55"
same,lungs/blood ratio,B16 murine melanoma [4]; 2 h,"11,94"
same,muscle/blood ratio,B16 murine melanoma [4]; 2 h,"1,96"
same,plasma/blood ratio,B16 murine melanoma [4]; 2 h,"0,60"
same,tumor/blood ratio,B16 murine melanoma [4]; 2 h,"8,51"
same,brain/blood ratio,B16 murine melanoma [4]; 4 h,"4,33"
same,eye/blood ratio,B16 murine melanoma [4]; 4 h,"39,70"
same,kidney/blood ratio,B16 murine melanoma [4]; 4 h,"16,38"
same,liver/blood ratio,B16 murine melanoma [4]; 4 h,"7,58"
same,lungs/blood ratio,B16 murine melanoma [4]; 4 h,"16,64"
same,muscle/blood ratio,B16 murine melanoma [4]; 4 h,"2,49"
same,plasma/blood ratio,B16 murine melanoma [4]; 4 h,"0,79"
same,tumor/blood ratio,B16 murine melanoma [4]; 4 h,"16,17"
same,brain/blood ratio,B16 murine melanoma [4]; 6 h,"3,51"
same,eye/blood ratio,B16 murine melanoma [4]; 6 h,73
same,kidney/blood ratio,B16 murine melanoma [4]; 6 h,"13,04"
same,liver/blood ratio,B16 murine melanoma [4]; 6 h,"6,80"
same,lungs/blood ratio,B16 murine melanoma [4]; 6 h,"14,66"
same,muscle/blood ratio,B16 murine melanoma [4]; 6 h,"1,47"
same,plasma/blood ratio,B16 murine melanoma [4]; 6 h,"0,90"
same,tumor/blood ratio,B16 murine melanoma [4]; 6 h,36
same,"contrast index of melanic tumors vs neighbouring muscles or organs, compared with A",B16 murine melanoma [4]; 6 hours,the majority of these indices are higher for B than for A
same,brain/blood ratio,B16 murine melanoma [4]; 24 h,"0,46"
same,eye/blood ratio,B16 murine melanoma [4]; 24 h,200
same,kidney/blood ratio,B16 murine melanoma [4]; 24 h,"5,24"
same,liver/blood ratio,B16 murine melanoma [4]; 24 h,"7,49"
same,lungs/blood ratio,B16 murine melanoma [4]; 24 h,"1,74"
same,muscle/blood ratio,B16 murine melanoma [4]; 24 h,"0,75"
same,plasma/blood ratio,B16 murine melanoma [4]; 24 h,"0,77"
same,tumor/blood ratio,B16 murine melanoma [4]; 24 h,16
same,concentrations and tumor/blood ratios compared with A,"B16 murine melanoma [4]; 24 hours, melanic melanomas, preliminary",lower than those of A
same,marker of the B16 murine melanoma,"B16 murine melanoma [4]; mouse, in vivo",markers of the B16 murine melanoma
same,tissue uptake at 1 h,"[5]; blood, read-out: blood % ID/g",1.31 %ID/g
same,tissue uptake at 2 h,"[5]; blood, read-out: blood % ID/g",0.67 %ID/g
same,tissue uptake at 4 h,"[5]; blood, read-out: blood % ID/g",0.27 %ID/g
same,tissue uptake at 6 h,"[5]; blood, read-out: blood % ID/g",0.14 %ID/g
same,tissue uptake at 24 h,"[5]; blood, read-out: blood % ID/g",0.03 %ID/g
same,tissue uptake at 1 h,"[5]; brain, read-out: brain % ID/g",3.26 %ID/g
same,tissue uptake at 2 h,"[5]; brain, read-out: brain % ID/g",2.09 %ID/g
same,tissue uptake at 4 h,"[5]; brain, read-out: brain % ID/g",1.17 %ID/g
same,tissue uptake at 6 h,"[5]; brain, read-out: brain % ID/g",0.5 %ID/g
same,tissue uptake at 24 h,"[5]; brain, read-out: brain % ID/g",0.01 %ID/g
same,tissue uptake at 1 h,"[5]; eye, read-out: eye % ID/g",0.45 %ID/g
same,tissue uptake at 2 h,"[5]; eye, read-out: eye % ID/g",0.43 %ID/g
same,tissue uptake at 4 h,"[5]; eye, read-out: eye % ID/g",0.42 %ID/g
same,tissue uptake at 6 h,"[5]; eye, read-out: eye % ID/g",0.38 %ID/g
same,tissue uptake at 24 h,"[5]; eye, read-out: eye % ID/g",0.24 %ID/g
same,tissue uptake at 1 h,[5]; [8],14.4 %ID/g
same,tissue uptake at 2 h,[5]; [8],8.64 %ID/g
same,tissue uptake at 4 h,[5]; [8],4.42 %ID/g
same,tissue uptake at 6 h,[5]; [8],1.86 %ID/g
same,tissue uptake at 24 h,[5]; [8],0.16 %ID/g
same,tissue uptake at 1 h,"[5]; liver, read-out: liver % ID/g",6.96 %ID/g
same,tissue uptake at 2 h,"[5]; liver, read-out: liver % ID/g",3.72 %ID/g
same,tissue uptake at 4 h,"[5]; liver, read-out: liver % ID/g",2.05 %ID/g
same,tissue uptake at 6 h,"[5]; liver, read-out: liver % ID/g",0.96 %ID/g
same,tissue uptake at 24 h,"[5]; liver, read-out: liver % ID/g",0.22 %ID/g
same,tissue uptake at 1 h,"[5]; lung, read-out: lungs % ID/g",14.4 %ID/g
same,tissue uptake at 2 h,"[5]; lung, read-out: lungs % ID/g",8 %ID/g
same,tissue uptake at 4 h,"[5]; lung, read-out: lungs % ID/g",4.49 %ID/g
same,tissue uptake at 6 h,"[5]; lung, read-out: lungs % ID/g",2.1 %ID/g
same,tissue uptake at 24 h,"[5]; lung, read-out: lungs % ID/g",0.05 %ID/g
same,tissue uptake at 1 h,[5]; [9],2.55 %ID/g
same,tissue uptake at 2 h,[5]; [9],1.33 %ID/g
same,tissue uptake at 4 h,[5]; [9],0.67 %ID/g
same,tissue uptake at 6 h,[5]; [9],0.2 %ID/g
same,tissue uptake at 24 h,[5]; [9],0.02 %ID/g
same,tissue uptake at 1 h,[5]; [10],0.73 %ID/g
same,tissue uptake at 2 h,[5]; [10],0.4 %ID/g
same,tissue uptake at 4 h,[5]; [10],0.21 %ID/g
same,tissue uptake at 6 h,[5]; [10],0.13 %ID/g
same,tissue uptake at 24 h,[5]; [10],0.02 %ID/g
same,tissue uptake at 1 h,"[5]; tumor, read-out: tumor % ID/g",6.03 %ID/g
same,tissue uptake at 2 h,"[5]; tumor, read-out: tumor % ID/g",5.73 %ID/g
same,tissue uptake at 4 h,"[5]; tumor, read-out: tumor % ID/g",4.36 %ID/g
same,tissue uptake at 6 h,"[5]; tumor, read-out: tumor % ID/g",4.69 %ID/g
same,tissue uptake at 24 h,"[5]; tumor, read-out: tumor % ID/g",0.49 %ID/g
same,darkening along the circumference of the tumor,[6]; 6 h after injection,more pronounced darkening along the circumference of the tumor
same,time up to which tumor is visible on autoradiogram,[6]; after injection,up to 6 h
same,tumoral definition,[7],very good tumoral definition
